The test system of data set [1] is U-2 OS cells. The data set can be described thus: effect of BSO treatment on Example 2 staining in U-2 OS cells. In kind it is cell-based, human. As to conditions: BSO 4 mM overnight, Example 2 40 uM, varied staining time, 3.7% formaldehyde fixation, nuclear region. As to the method:
(§1) Cells are plated into 96-well microplates and allowed to recover for several hours or overnight. For testing effects of drugs on intracellular thiol/glutathione content, normal growth medium is removed and replaced with normal growth medium containing the test drug. The solution is incubated for several minutes to days. Growth medium is then removed and mixture is rinsed twice with DPBS with glucose/calcium/magnesium (Invitrogen #14287). The compound of Examples 1, 2 or 4 is added in DPBS (Invitrogen #14287), with a concentration up to 100 uM (typically 20 uM). The solution is incubated in a 37 degree C. incubator for 5-30 minutes (typically 30 minutes). Cells can be imaged after dye labeling.
(§2) Aldehyde fixation: The dye solution is removed and formaldehyde 3.7% (Sigma F1635, or higher quality) in DPBS (Invitrogen #14190) is added and incubated at room temperature in a fume hood for 30 minutes. The formaldehyde fixative is then removed and cells are rinsed with DPBS (Invitrogen #14190) twice. Cells are kept in PBS.
(§3) To quantitate the images of cells stained with the Example compounds, one of the image analysis “BioApplcations” of Arrayscan VTI is used. […] Pixel intensity of the dye in cells are measured in regions (Nucleus, and/or “CytoRing”) defined by the cell identification method based on the nuclear counter stain. […]

For data set [2], the system named is U-2 OS cells. Description: effect of quinone toxicants on Example 2 staining in U-2 OS cells. It counts as cell-based, human. As to conditions: toxicant 2 hours, high concentration 33.3 uM in steps of 1/3, Example 2 30 min, formaldehyde fixation, nuclear region. On the procedure:
as §1, §2
To quantitate the images of cells stained with the Example compounds, one of the image analysis “BioApplcations” of Arrayscan VTI is used. The basic principle of the software is described as follows: Individual cells in an image are identified using the intensity profile of nuclear stain (e.g. TO-PRO-3). The regions derived from the identified nuclear region in individual cells is obtained (“CytoRing”). Pixel intensity of the dye in cells are measured in regions (Nucleus, and/or “CytoRing”) defined by the cell identification method based on the nuclear counter stain. Cell-level data (intensity and other attributes of each cell in all acquired images) are then reported by the computer for further processing and analysis.

Data set [3] concerns Clone 9 cells (Rat liver cells). Description: effect of DEM treatment on Clone 9 cells, Example 2 multiplexed with YOYO-1. In kind it is cell-based. As to conditions: DEM 2 hours, at higher concentration of DEM. On the procedure: Cells are plated into 96-well microplates and allowed to recover for several hours or overnight. For testing effects of drugs on intracellular thiol/glutathione content, normal growth medium is removed and replaced with normal growth medium containing the test drug. The solution is incubated for several minutes to days. Growth medium is then removed and mixture is rinsed twice with DPBS with glucose/calcium/magnesium (Invitrogen #14287). The compound of Examples 1, 2 or 4 is added in DPBS (Invitrogen #14287), with a concentration up to 100 uM (typically 20 uM). The solution is incubated in a 37 degree C. incubator for 5-30 minutes (typically 30 minutes). Cells can be imaged after dye labeling. Aldehyde fixation: The dye solution is removed and formaldehyde 3.7% (Sigma F1635, or higher quality) in DPBS (Invitrogen #14190) is added and incubated at room temperature in a fume hood for 30 minutes. The formaldehyde fixative is then removed and cells are rinsed with DPBS (Invitrogen #14190) twice. Cells are kept in PBS. To quantitate the images of cells stained with the Example compounds, one of the image analysis “BioApplcations” of Arrayscan VTI is used. […] Pixel intensity of the dye in cells are measured in regions (Nucleus, and/or “CytoRing”) defined by the cell identification method based on the nuclear counter stain. […]

Data set [4] is described as follows: absorption and emission maxima of the dyes. In kind it is physicochemical.
Data set [5] has as its system U-2 OS cells. Description: cellular staining pattern in U-2 OS cells. It counts as cell-based, human. As to the method:
as §1, §2
(§4) The material is imaged with a fluorescence microscope with filter set for Hoechst 33342 (e.g. Arrayscan VTI (Thermo Fisher Scientific/Cellomics) to acquire the images automatically).

In data set [6] the test system is U-2 OS cells. The data set can be described thus: staining intensity of dyes in fixed U-2 OS cells, measured at the nuclear region. It counts as cell-based, human. Particulars: dye concentration 40 uM, 30 min staining, 3.7% formaldehyde fixation. On the procedure:
as §1
Aldehyde fixation: The dye solution is removed and formaldehyde 3.7% (Sigma F1635, or higher quality) in DPBS (Invitrogen #14190) is added and incubated at room temperature in a fume hood for 30 minutes. […]
as §4, §3

The subject of data set [7] is U-2 OS cells. Description: SDS-PAGE of labeled U-2 OS cells (+/- BSO) to identify the intracellular target of the dye. Particulars: (+/-) BSO 4 mM overnight, Example 2 40 uM for 60 min. In kind it is cell-based, human. On the procedure: U-2 OS cells (ATCC HTB-96, human osteosarcoma cells) were plated in 10-cm dishes and incubated overnight in a 37 degree C. cell culture incubator. The cells were then treated with DL-Buthionine-(S,R)-sulfoximine (BSO, 4 mM in growth medium) for overnight (Control=no BSO treatment). The cells are rinsed cells 3 times with 10 mL of DPBS (Invitrogen #14287).
Labeling of cells: Example 2 (40 uM) in DPBS (Invitrogen #14287) was incubated at room temperature for 1 hour. The dye solution was removed and cells rinsed with DPBS (Invitrogen #14287) twice. The cells were scraped off the dish in the presence of DPBS and transferred to a 15 mL conical tube. The cells were pelleted by centrifugation—(5 min. at 5000 rpm, Centrific centrifuge, Fisher Scientific) and resuspended in DPBS, followed by pelleting cells by centrifugation for 5 min at 1000×g. The cells were resuspended in 170 μl DPBS and, to one half, 1 μl Protease Inhibitor (Sigma, P8340) was added, followed by 2 μl 1 M NEM for 30 min and 4 μl 1 M DTT for 30 min.
Processed samples were resolved with SDS-PAGE (NuPAGE 12% Bis-Tris, Invitrogen, NP0342BOX) run in MES buffer (Invitrogen, NP0002). LDS sample buffer (NP0007) and Molecular weight standard (SeeBluePlus2 Prestained Standard LC5925) were obtained from Invitrogen. […]

“And” between values parts separate entries of the source, which are not always exact repeats. Identical values can stand only once. Counter-ions that a name gives are not always drawn.

With `CCCCS(=N)(=O)CCC(N)C(=O)O` (racemic) [BSO, DL-Buthionine-(S,R)-sulfoximine], the “effect on Example 2 staining intensity” value with U-2 OS cells [1] is reported as “reduction of Example 2 staining”.
With `O=C1C=CC(=O)C=C1` [BQ, 1,4-benzoquione], the “effect on Example 2 staining intensity” value in the data set with U-2 OS cells [2] is recorded as “decrease of staining at high toxicant concentrations”.
With `COC(=O)/C=C\C(=O)OC` [DEM, Dimethyl maleate], in data set [3] (Example 2 40 uM 30 min), the “effect on Example 2 intensity” value is “decrease of Example 2 signal (left shift)”. Further, in data set [3] (YOYO-1 1 uM 30 min), the “effect on YOYO-1 intensity” value was “increase of YOYO-1 signal (up shift)”.
In data set [4] (in methanol), `O=c1cc(CCl)c2cc3c4c(c2o1)CCCN4CCC3` [Example 1, 2,3,6,7-tetrahydro-9-chloromethyl-1H,5H-quinolizino(9,1-gh)coumarin] registered an absorption maximum of 405 nm and an emission maximum of 493 nm. For the same compound, in the data set with U-2 OS cells [5], the cellular staining pattern result is “prominent in nuclear area and diffuse stain in the cytoplasm, with low staining in the cell periphery”. Besides, the “staining intensity (brightness) relative to comparator dyes” value with U-2 OS cells [6] was “brighter than CMAC and mBCl”.
Regarding `O=c1cc(CBr)c2cc3c4c(c2o1)CCCN4CCC3` [Example 2, 2,3,6,7-tetrahydro-9-bromomethyl-1H,5H-quinolizino(9,1-gh)coumarin], in the data set on U-2 OS cells [7], the major intracellular target result is “Glutathione (GSH)”. Besides, in data set [4] (in methanol), the absorption maximum is 408 nm and 413 nm; the emission maximum was 497 nm and 515 nm. In addition, the cellular staining pattern result with U-2 OS cells [5] was “prominent in nuclear area and diffuse stain in the cytoplasm, with low staining in the cell periphery”. The “staining intensity (brightness) relative to comparator dyes” value in the data set on U-2 OS cells [6] was “brighter than Example 1”.
In the case of `N[C@H](CCC(=O)N[C@H](CSCc1cc(=O)oc2c3c4c(cc12)CCCN4CCC3)C(=O)NCC(=O)O)C(=O)O` [Example 3, glutathione adduct of 2,3,6,7-tetrahydro-9-bromomethyl-1H,5H-quinolizino(9,1-gh)coumarin], in data set [4] (in water), the absorption maximum is given as 408 nm and the emission maximum stood at 512 nm.
Turning to `CC1=CC(=O)c2ccccc2C1=O` [MNQ, 2-methyl-1,4-naphthoquinone], the “effect on Example 2 staining intensity” value in the data set on U-2 OS cells [2] is “decrease of staining at high toxicant concentrations”.
Regarding `O=C1C=CC(=O)c2ccccc21` [NQ, 1,4-naphthoquinone], the “effect on Example 2 staining intensity” value in the data set on U-2 OS cells [2] is “decrease of staining at high toxicant concentrations”.

These data come from US8981100B2, “Use of novel coumarins as glutathione and thiol labels” (Life Technologies Corporation, priority 2007, dated 2015).
